# From ChEMBL document CHEMBL1201862, “PubChem BioAssay data set” (2004)
# The source made the active and inactive calls.
# Legend:
# [1] = system: Streptococcus sp. 'group A'; assay: Streptococcus pyogenes SK(-)GAS viability under kanamycin – luminescence, BacTiterGlo, confirmation, counter-screen for streptokinase expression inhibitor project, dose response (AID 1900); type: functional, organism-based
# [2] = Trypanosoma cruzi growth suppression in host cells – NIH3T3 host cells, beta-gal luminescence, confirmation (AID 2044); type: functional, cell-based;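 also: intracellular parasites grown in NIH/3T3 mouse fibroblasts as host cells; luminescent beta-galactosidase reporter signal from transgenic T. cruzi replicating inside host cells; inhibitors lower the luminescence signal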
# [3] = NIH3T3 cell viability loss – ATP luminescence, mouse fibroblasts, counter-screen, dose response (AID 2010); type: functional, cell-based;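 also: cells exposed to compound for about 90 hours before reading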
# [4] = system: Streptococcus; assay: GAS UMAA2166 growth inhibition – luminescence, BacTiterGlo, counter-screen for streptokinase expression inhibitor project, dose response (AID 1915); type: functional, organism-based;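 also: potency for reduction of bacterial viability or growth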
# [5] = target: 26S proteasome non-ATPase regulatory subunit 14 (Homo sapiens, UniProt O00487); assay: inhibition of proteasome subunit RPN11 – biochemical, fluorescence polarization, uHTS hits, confirmation (AID 602368); type: functional
# [6] = target: 72 kDa type IV collagenase (Homo sapiens, UniProt P08253); assay: Dose Response validation of uHTS RPN11 inhibitor hits using a MMP-2 Fluorescence assay.; type: functional
# [7] = target: Prothrombin (Bos taurus, UniProt P00735); assay: thrombin protease inhibitors – biochemical, fluorescence polarization, uHTS hits, dose response (AID 602369); type: functional
# [8] = cells; type: functional
# [9] = target: T1, Glycogen synthase kinase-3 alpha (Homo sapiens, UniProt P49840); assay: Inhibition of Human GSK-3 alpha Activity Measured in Biochemical System Using Microfluidics - 2063-06_Inhibitor_Dose_DryPowder_Activity_Set2. [Related pubchem assays (depositor defined):AID2709]
# [10] = target: Glycogen synthase kinase-3 beta (Homo sapiens, UniProt P49841); assay: Inhibition of Human GSK-3 beta Activity Measured in Biochemical System Using Microfluidics - 2063-05_Inhibitor_Dose_DryPowder_Activity_Set2. [Related pubchem assays (depositor defined):AID2709]
# [11] = target: T2, Low molecular weight phosphotyrosine protein phosphatase (Homo sapiens, UniProt P24666); type: functional; conditions: read-out: IC50_Mean
# T2 sequence (P24666 whole entry): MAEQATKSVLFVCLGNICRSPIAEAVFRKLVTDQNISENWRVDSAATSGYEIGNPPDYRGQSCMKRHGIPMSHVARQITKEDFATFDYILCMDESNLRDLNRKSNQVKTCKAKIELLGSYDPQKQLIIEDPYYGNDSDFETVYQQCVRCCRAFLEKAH
# [12] = target: T2, Low molecular weight phosphotyrosine protein phosphatase; type: functional; conditions: read-out: IC50_Mean; remark: listed apart in the source
# [13] = target: T3, High affinity choline transporter 1 (Homo sapiens, UniProt Q9GZV3); assay: human choline transporter potentiators, potency – cell-based, 10-point CRC, membrane potential dye, dose response (AID 602376); type: functional
# T3 sequence (Q9GZV3 whole entry): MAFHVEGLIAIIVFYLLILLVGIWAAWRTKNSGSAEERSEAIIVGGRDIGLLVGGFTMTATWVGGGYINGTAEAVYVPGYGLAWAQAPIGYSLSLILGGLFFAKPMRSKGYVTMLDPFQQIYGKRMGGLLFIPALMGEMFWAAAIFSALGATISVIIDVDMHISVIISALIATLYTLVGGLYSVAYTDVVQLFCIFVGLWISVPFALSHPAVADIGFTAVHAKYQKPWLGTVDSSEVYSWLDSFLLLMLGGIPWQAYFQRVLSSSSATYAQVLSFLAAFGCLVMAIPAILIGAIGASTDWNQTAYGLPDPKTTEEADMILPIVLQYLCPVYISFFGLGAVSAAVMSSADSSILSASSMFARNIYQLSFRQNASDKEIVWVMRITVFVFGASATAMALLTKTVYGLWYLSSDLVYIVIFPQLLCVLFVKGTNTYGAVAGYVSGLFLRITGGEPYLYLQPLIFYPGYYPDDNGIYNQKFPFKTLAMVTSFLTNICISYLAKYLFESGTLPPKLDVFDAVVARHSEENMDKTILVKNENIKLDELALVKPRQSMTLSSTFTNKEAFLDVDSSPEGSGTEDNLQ
# [14] = target: Sphingosine 1-phosphate receptor 2 (Homo sapiens, UniProt O95136); assay: Late-stage fluorescence-based dose-response cell-based counterscreen assay to identify agonists of the Sphingosine 1-Phosphate Receptor 3 (S1P3): Sphingosine 1-Phosphate Receptor 2 (S1P2) agonist assay.; type: functional
# [15] = target: Sphingosine 1-phosphate receptor 4 (Homo sapiens, UniProt O95977); assay: Late-stage fluorescence-based dose-response cell-based counterscreen assay to identify agonists of the Sphingosine 1-Phosphate Receptor 3 (S1P3): Sphingosine 1-Phosphate Receptor 4 (S1P4) agonist assay.; type: functional
# [16] = target: T4, DNA dC->dU-editing enzyme APOBEC-3A (Homo sapiens, UniProt P31941); assay: SAR analysis of small molecule inhibitors of APOBEC3A DNA Deaminase via a fluorescence-based single-stranded DNA deaminase assay - Set 2.; type: functional; conditions: read-out: IC50_Mean
# [17] = target: T5, DNA dC->dU-editing enzyme APOBEC-3G (Homo sapiens, UniProt Q9HC16); assay: SAR analysis of small molecule inhibitors of APOBEC3G DNA Deaminase via a fluorescence-based single-stranded DNA deaminase assay - Set 2.; type: functional; conditions: read-out: IC50_Mean
# [18] = target: T5, DNA dC->dU-editing enzyme APOBEC-3G; assay: inhibition of APOBEC3G ssDNA deamination – biochemical, fluorescence, single-stranded DNA substrate, SAR follow-up (AID 602136); type: functional; conditions: read-out: IC50_Mean
# [19] = target: T4, DNA dC->dU-editing enzyme APOBEC-3A; assay: SAR analysis of small molecule inhibitors of APOBEC3A DNA Deaminase via a fluorescence-based single-stranded DNA deaminase assay.; type: functional; conditions: read-out: IC50_Mean
# [20] = target: Dual specificity protein kinase CLK2 (Homo sapiens, UniProt P49760); type: functional
# [21] = target: Serine/threonine-protein kinase D3 (Homo sapiens, UniProt O94806); type: functional;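 also: determined within a kinase panel screen, with PRKCN as the panel member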
# [22] = target: Activin receptor type-1 (Homo sapiens, UniProt Q04771); assay: Navigating the Kinome. Panel member name: ACVR1; type: functional
# [23] = target: Serine/threonine-protein kinase PAK 4 (Homo sapiens, UniProt O96013); type: functional;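 also: value obtained within a kinome profiling panel in which PAK4 was one of the panel members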
# [24] = target: Fibroblast growth factor receptor 1 (Homo sapiens, UniProt P11362); type: functional
# [25] = target: Casein kinase I isoform alpha (Homo sapiens, UniProt P48729); type: functional
# [26] = target: Tyrosine-protein kinase JAK3 (Homo sapiens, UniProt P52333); type: functional
# [27] = target: LIM domain kinase 1 (Homo sapiens, UniProt P53667); assay: Navigating the Kinome. Panel member name: LIMK1; type: functional
# [28] = target: T1, Glycogen synthase kinase-3 alpha; type: functional
# [29] = target: G protein-coupled receptor kinase 5 (Homo sapiens, UniProt P34947); assay: Navigating the Kinome. Panel member name: GPRK5; type: functional
# [30] = target: Dual specificity tyrosine-phosphorylation-regulated kinase 1B (Homo sapiens, UniProt Q9Y463); assay: Navigating the Kinome. Panel member name: DYRK1B; type: functional
# [31] = target: Aurora kinase B (Homo sapiens, UniProt Q96GD4); type: functional
# [32] = target: Cyclin-dependent kinase 7 (Homo sapiens, UniProt P50613); type: functional;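 also: value comes from a kinome-wide kinase profiling panel in which CDK7 is one member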
# [33] = target: Dual specificity protein kinase CLK4 (Homo sapiens, UniProt Q9HAZ1); type: functional
# [34] = target: Dual specificity tyrosine-phosphorylation-regulated kinase 1A (Homo sapiens, UniProt Q13627); type: functional;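 also: measured against DYRK1A as one member of a broad kinome profiling panel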
# [35] = target: Calcium/calmodulin-dependent protein kinase type II subunit alpha (Homo sapiens, UniProt Q9UQM7); assay: Navigating the Kinome. Panel member name: CAMK2A; type: functional
# [36] = target: Mitogen-activated protein kinase 14 (Homo sapiens, UniProt Q16539); type: functional;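 also: part of a kinome-wide panel, MAPK14 entry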
# T4 sequence (P31941 whole entry): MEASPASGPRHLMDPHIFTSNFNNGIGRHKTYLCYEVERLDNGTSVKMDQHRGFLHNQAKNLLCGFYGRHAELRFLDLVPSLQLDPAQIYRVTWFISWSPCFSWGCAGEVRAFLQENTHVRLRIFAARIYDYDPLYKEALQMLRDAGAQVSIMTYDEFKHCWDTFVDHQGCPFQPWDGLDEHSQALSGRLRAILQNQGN
# T1 sequence (P49840 whole entry): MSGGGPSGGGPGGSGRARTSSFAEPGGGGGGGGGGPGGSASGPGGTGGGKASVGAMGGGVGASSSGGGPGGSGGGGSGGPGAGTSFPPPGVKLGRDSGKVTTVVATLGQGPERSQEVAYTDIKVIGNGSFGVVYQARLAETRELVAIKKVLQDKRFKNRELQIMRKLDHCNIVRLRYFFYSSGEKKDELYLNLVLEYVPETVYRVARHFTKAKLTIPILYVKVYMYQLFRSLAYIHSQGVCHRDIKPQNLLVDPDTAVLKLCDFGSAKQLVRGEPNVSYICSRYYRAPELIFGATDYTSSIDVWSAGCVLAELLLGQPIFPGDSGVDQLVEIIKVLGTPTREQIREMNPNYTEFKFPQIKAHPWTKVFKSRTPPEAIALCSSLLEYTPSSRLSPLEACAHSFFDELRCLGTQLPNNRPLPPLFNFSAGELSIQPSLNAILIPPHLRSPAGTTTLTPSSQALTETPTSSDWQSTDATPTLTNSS
# T5 sequence (Q9HC16 whole entry): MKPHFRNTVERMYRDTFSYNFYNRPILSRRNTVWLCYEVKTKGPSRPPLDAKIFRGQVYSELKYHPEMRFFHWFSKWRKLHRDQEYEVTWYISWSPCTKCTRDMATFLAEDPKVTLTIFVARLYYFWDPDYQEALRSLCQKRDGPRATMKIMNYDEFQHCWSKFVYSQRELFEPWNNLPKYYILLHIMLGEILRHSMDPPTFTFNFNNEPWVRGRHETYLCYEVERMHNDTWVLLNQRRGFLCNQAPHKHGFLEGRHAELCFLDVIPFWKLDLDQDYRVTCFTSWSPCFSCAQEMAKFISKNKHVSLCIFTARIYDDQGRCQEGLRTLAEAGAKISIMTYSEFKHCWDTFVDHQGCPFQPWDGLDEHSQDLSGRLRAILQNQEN
# Sequence of LIM domain kinase 1 (P53667 whole entry, the tested form may be a part): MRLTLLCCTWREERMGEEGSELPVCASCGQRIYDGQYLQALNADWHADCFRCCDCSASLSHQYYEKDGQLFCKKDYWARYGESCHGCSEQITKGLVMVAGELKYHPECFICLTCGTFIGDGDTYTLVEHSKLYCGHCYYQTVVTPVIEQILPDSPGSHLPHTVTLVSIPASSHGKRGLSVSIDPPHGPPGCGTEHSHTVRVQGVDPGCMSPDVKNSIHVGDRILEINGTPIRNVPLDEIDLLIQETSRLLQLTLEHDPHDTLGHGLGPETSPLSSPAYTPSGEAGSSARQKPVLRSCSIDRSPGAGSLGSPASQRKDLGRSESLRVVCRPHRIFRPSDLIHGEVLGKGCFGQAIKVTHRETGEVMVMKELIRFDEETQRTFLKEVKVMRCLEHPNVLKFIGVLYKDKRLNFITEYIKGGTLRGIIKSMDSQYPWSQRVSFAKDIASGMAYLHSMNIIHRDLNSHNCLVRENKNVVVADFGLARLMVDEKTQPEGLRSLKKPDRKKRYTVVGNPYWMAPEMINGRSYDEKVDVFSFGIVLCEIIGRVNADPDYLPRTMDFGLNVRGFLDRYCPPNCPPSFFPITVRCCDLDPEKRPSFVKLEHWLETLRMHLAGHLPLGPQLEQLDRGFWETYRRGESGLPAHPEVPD
# Sequence of Cyclin-dependent kinase 7 (P50613 whole entry): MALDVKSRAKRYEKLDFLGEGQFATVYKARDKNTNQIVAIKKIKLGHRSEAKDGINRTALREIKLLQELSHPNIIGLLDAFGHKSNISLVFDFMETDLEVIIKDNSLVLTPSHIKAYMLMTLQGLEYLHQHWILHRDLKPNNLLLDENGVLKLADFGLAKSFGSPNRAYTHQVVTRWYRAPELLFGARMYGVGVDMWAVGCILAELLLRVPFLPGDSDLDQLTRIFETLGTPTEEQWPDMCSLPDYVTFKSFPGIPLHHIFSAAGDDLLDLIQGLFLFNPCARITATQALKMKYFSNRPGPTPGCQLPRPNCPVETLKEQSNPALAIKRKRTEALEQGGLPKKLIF
# Sequence of Sphingosine 1-phosphate receptor 4 (O95977 whole entry): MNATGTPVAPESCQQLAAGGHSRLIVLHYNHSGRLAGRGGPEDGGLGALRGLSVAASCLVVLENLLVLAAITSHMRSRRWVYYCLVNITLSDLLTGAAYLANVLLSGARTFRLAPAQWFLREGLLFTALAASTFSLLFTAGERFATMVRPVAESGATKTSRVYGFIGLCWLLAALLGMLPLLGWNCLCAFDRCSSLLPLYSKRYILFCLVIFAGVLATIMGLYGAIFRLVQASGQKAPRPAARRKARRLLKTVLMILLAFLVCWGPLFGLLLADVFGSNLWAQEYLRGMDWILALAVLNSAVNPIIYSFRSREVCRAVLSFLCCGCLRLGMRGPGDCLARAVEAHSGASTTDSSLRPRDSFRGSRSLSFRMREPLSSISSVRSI
# Sequence of Aurora kinase B (Q96GD4 whole entry): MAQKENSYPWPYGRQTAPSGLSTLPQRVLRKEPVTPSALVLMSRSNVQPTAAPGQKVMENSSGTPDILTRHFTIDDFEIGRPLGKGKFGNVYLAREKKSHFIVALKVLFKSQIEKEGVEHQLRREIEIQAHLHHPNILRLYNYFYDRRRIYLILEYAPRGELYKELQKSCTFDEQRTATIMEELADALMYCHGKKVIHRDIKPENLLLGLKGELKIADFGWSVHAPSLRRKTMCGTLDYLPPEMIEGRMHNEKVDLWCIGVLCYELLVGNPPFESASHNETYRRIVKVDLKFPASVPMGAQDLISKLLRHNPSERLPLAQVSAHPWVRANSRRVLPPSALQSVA
# Sequence of 72 kDa type IV collagenase (P08253 whole entry): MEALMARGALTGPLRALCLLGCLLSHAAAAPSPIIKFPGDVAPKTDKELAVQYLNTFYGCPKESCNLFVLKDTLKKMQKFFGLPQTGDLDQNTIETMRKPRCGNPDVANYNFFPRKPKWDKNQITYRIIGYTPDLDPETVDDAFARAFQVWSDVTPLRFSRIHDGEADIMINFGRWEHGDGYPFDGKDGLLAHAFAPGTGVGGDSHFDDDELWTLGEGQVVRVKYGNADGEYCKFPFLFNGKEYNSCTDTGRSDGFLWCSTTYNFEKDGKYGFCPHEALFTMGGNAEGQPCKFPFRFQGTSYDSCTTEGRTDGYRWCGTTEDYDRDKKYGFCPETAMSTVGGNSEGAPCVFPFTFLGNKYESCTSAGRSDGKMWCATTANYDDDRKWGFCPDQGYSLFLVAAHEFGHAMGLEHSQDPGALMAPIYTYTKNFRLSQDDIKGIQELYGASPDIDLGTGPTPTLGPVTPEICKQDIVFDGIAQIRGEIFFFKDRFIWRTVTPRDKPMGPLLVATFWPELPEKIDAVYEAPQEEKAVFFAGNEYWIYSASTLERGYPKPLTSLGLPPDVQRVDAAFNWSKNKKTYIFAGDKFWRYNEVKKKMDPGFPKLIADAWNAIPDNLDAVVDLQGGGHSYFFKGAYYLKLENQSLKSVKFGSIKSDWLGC
# Sequence of 26S proteasome non-ATPase regulatory subunit 14 (O00487 whole entry): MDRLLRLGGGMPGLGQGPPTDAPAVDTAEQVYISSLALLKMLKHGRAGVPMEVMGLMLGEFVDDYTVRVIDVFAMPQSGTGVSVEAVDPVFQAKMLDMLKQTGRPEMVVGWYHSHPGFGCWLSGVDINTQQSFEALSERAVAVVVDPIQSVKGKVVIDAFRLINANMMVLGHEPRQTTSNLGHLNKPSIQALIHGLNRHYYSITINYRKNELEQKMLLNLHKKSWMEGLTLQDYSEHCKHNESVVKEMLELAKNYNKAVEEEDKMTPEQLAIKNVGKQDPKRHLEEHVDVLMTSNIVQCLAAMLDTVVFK
# Sequence of G protein-coupled receptor kinase 5 (P34947 whole entry): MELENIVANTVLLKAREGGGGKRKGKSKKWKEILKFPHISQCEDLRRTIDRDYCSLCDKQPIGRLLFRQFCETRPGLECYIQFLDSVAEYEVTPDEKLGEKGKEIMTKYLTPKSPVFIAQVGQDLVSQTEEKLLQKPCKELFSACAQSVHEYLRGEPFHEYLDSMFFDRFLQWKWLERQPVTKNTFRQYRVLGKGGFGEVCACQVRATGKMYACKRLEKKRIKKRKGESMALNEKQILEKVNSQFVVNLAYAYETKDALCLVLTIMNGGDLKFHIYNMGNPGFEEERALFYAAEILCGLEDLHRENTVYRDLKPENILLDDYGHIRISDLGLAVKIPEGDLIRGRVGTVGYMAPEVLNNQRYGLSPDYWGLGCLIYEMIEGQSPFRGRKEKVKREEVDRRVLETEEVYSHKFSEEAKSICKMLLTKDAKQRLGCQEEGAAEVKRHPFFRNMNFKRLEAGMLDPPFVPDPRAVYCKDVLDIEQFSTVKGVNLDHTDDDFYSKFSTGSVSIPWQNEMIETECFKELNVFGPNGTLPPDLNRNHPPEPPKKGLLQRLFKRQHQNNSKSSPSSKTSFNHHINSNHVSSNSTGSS
# Sequence of Activin receptor type-1 (Q04771 whole entry): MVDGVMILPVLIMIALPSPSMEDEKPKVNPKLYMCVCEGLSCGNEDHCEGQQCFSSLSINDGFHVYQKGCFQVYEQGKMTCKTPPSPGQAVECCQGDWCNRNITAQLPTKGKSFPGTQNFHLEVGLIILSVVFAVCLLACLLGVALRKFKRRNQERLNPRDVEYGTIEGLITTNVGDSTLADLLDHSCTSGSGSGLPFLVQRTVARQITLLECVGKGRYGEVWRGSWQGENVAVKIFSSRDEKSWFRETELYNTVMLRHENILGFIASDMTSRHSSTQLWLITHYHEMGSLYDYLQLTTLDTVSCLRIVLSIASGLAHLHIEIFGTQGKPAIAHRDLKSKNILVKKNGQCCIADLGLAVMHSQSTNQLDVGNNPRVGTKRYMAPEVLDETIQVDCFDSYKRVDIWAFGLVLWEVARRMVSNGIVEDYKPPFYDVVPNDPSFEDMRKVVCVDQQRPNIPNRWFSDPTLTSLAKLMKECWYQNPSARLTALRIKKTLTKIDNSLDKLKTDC
smiles,measurement,setting,value
COc1ccc2oc(C(=O)Nc3nc(-c4ccccn4)cs3)c(C)c2c1,EC50,[1],0.915 µM (active)
same,EC50,[2],1.22 µM (active)
same,EC50,[3],18.9 µM (active)
same,EC50,[4],1.52 µM (active)
same,IC50,[5],34.1 µM (active)
same,IC50,[6],> 100 µM (inactive)
same,IC50,[7],69.4 µM (active)
c1ccc(-c2nc(NCCCn3ccnc3)c3ccccc3n2)cc1,IC50,[8],20.1 µM (active)
same,AC50,[9],11.2 µM (active)
same,AC50,[10],8.78 µM (active)
same,IC50,[11],39 µM (inactive)
same,IC50,[12],13.9 µM (active)
COc1ccc(C)cc1Nc1n[n+](-c2ccccc2)c(-c2ccc(SC)cc2)s1,EC50,[13],15.5 µM (active)
CC(C)c1cc(C(=O)N(C2CCCCC2)C2CCCCC2)no1,EC50,[14],> 50 µM (inactive)
same,EC50,[15],> 50 µM (inactive)
CCc1nc2sc3c(c2c2nnc(SC)n12)CCC(C)C3 (stereo unspecified),IC50,[16],> 99 µM (inactive)
same,IC50,[17],> 99 µM (inactive)
Cc1c(CNCc2cccc(Br)c2)c(C(=O)O)c(C)n1Cc1ccc(F)cc1,IC50,[18],> 99 µM (inactive)
same,IC50,[19],> 99 µM (inactive)
Nc1ncnc2nc3ccccc3n12,Ki,[20],39.8 µM (active)
same,Ki,[21],> 79.4 µM (inactive)
same,Ki,[22],> 79.4 µM (inactive)
same,Ki,[23],> 100 µM (inactive)
same,Ki,[24],> 79.4 µM (inactive)
same,Ki,[25],20 µM (active)
same,Ki,[26],> 100 µM (inactive)
same,Ki,[27],63.1 µM (active)
same,Ki,[28],> 79.4 µM (inactive)
same,Ki,[29],> 79.4 µM (inactive)
same,Ki,[30],20 µM (active)
same,Ki,[31],> 79.4 µM (inactive)
same,Ki,[32],> 79.4 µM (inactive)
same,Ki,[33],7.94 µM (active)
same,Ki,[34],39.8 µM (active)
same,Ki,[35],> 79.4 µM (inactive)
same,Ki,[36],> 79.4 µM (inactive)
